Assay results from paper PMC4303209, “A novel phosphatidylinositol 3-kinase (PI3K) inhibitor directs a potent FOXO-dependent, p53-independent cell cycle arrest phenotype characterized by the differential induction of a subset of FOXO-regulated genes” (Breast Cancer Research : BCR, 2014).

Tested on: MCF-7 breast cancer cells
Experiment: Microarray gene expression analysis (Agilent whole human genome 4 x 44K; compound vs DMSO, LIMMA log2 fold change)
Type: cell-based
Settings: cell cycle genes

With `Oc1cccc(-c2nc(N3CCOCC3)c3oc4ncccc4c3n2)c1` [PI-103] the “TRIAP1 log2FC” value (Gene 51499) was -0.86, the “DTL log2FC” value (Gene 51514) was -0.14 and the “SIRT7 log2FC” value (Gene 51547) was 0.32. The “CINP log2FC” value (Gene 51550) was -0.05, the “GINS2 log2FC” value (Gene 51659) was -0.80 and the “NUP54 log2FC” value (Gene 53371) was 0.41. The “PELO log2FC” value (Gene 53918) was -0.59, the “WNT4 log2FC” value (Gene 54361) was -0.42 and the “ANLN log2FC” value (Gene 54443) was 0.75. For the same molecule, the “FBXW5 log2FC” value (Gene 54461) was 0.13, the “FAM64A log2FC” value (Gene 54478) was 0.10 and the “DDX4 log2FC” value (Gene 54514) was -0.13. For the same molecule, the “BTG4 log2FC” value (Gene 54766) was 0.11, the “NDE1 log2FC” value (Gene 54820) was 0.40 and the “NSUN2 log2FC” value (Gene 54888) was -0.48. For the same molecule, the “TTC19 log2FC” value (Gene 54902) was 0.67, the “TXNL4B log2FC” value (Gene 54957) was 0.28 and the “BANP log2FC” value (Gene 54971) was 0.16. The “AURKAIP1 log2FC” value (Gene 54998) was -0.22, the “PHIP log2FC” value (Gene 55023) was 1.07 and the “USP47 log2FC” value (Gene 55031) was 0.61. The “ZWILCH log2FC” value (Gene 55055) was 0.41, the “PIWIL2 log2FC” value (Gene 55124) was 0.06 and the “CEP192 log2FC” value (Gene 55125) was 0.35. For the same molecule, the “CDCA8 log2FC” value (Gene 55143) was -0.04, the “RFWD3 log2FC” value (Gene 55159) was -0.62 and the “CEP55 log2FC” value (Gene 55165) was 0.99. For the same molecule, the “CENPQ log2FC” value (Gene 55166) was 0.81, the “RIF1 log2FC” value (Gene 55183) was 0.39 and the “ARL8B log2FC” value (Gene 55207) was 0.45. For the same molecule, the “RCBTB1 log2FC” value (Gene 55213) was 0.71, the “CCDC87 log2FC” value (Gene 55231) was 0.15 and the “STEAP3 log2FC” value (Gene 55240) was -0.44. For the same molecule, the “MNS1 log2FC” value (Gene 55329) was 0.91, the “MCM10 log2FC” value (Gene 55388) was -0.91 and the “SMPD3 log2FC” value (Gene 55512) was -0.27. The “TRIM36 log2FC” value (Gene 55521) was 0.64, the “RBM38 log2FC” value (Gene 55544) was -0.58 and the “PRR5 log2FC” value (Gene 55615) was 0.45. The “PRPF40A log2FC” value (Gene 55660) was 1.01, the “CEP72 log2FC” value (Gene 55722) was 0.31 and the “CHFR log2FC” value (Gene 55743) was -0.11. The “NUP133 log2FC” value (Gene 55746) was 0.25, the “CCAR1 log2FC” value (Gene 55749) was 0.55 and the “CDK5RAP2 log2FC” value (Gene 55755) was 0.51. For the same molecule, the “PCID2 log2FC” value (Gene 55795) was 0.32, the “CENPN log2FC” value (Gene 55839) was 0.30 and the “PPP2R2D log2FC” value (Gene 55844) was -0.17. For the same molecule, the “HDAC8 log2FC” value (Gene 55869) was -0.36, the “PBK log2FC” value (Gene 55872) was 0.46 and the “BIN3 log2FC” value (Gene 55909) was -0.80. The “ERBB2IP log2FC” value (Gene 55914) was 1.07, the “RCC2 log2FC” value (Gene 55920) was -0.27 and the “KLHL9 log2FC” value (Gene 55958) was 0.04. The “TEX11 log2FC” value (Gene 56159) was 0.000672, the “TDRD1 log2FC” value (Gene 56165) was 0.04 and the “PARD3 log2FC” value (Gene 56288) was 0.46. The “RPRM log2FC” value (Gene 56475) was -0.24, the “CYP26B1 log2FC” value (Gene 56603) was 0.03 and the “SPIRE1 log2FC” value (Gene 56907) was 0.10. For the same molecule, the “SMARCAD1 log2FC” value (Gene 56916) was 0.55, the “PRDM9 log2FC” value (Gene 56979) was 0.0757 and the “KIF15 log2FC” value (Gene 56992) was 1.30. The “PDXP log2FC” value (Gene 57026) was -0.93, the “PCBP4 log2FC” value (Gene 57060) was -0.27 and the “CASC5 log2FC” value (Gene 57082) was 0.12. For the same molecule, the “PCNP log2FC” value (Gene 57092) was 0.60, the “NUP107 log2FC” value (Gene 57122) was 0.63 and the “CHMP1B log2FC” value (Gene 57132) was 0.39. For the same molecule, the “PAK7 log2FC” value (Gene 57144) was 0.45, the “CSRP2BP log2FC” value (Gene 57325) was 0.27 and the “TTYH1 log2FC” value (Gene 57348) was -0.09. The “BIRC6 log2FC” value (Gene 57448) was 0.14, the “MTA3 log2FC” value (Gene 57504) was 0.33 and the “HACE1 log2FC” value (Gene 57531) was 0.51. The “TAOK1 log2FC” value (Gene 57551) was 0.40, the “USP37 log2FC” value (Gene 57695) was 0.38 and the “FANCM log2FC” value (Gene 57697) was 0.48. For the same molecule, the “CCNB1IP1 log2FC” value (Gene 57820) was 0.84, the “RHOU log2FC” value (Gene 58480) was 1.56 and the “OVOL2 log2FC” value (Gene 58495) was 0.16. The “AVPI1 log2FC” value (Gene 60370) was 0.53, the “RINT1 log2FC” value (Gene 60561) was 0.44 and the “FAM111A log2FC” value (Gene 63901) was 0.33. For the same molecule, the “DMRTC2 log2FC” value (Gene 63946) was -0.00414, the “CLSPN log2FC” value (Gene 63967) was -0.11 and the “TSPYL2 log2FC” value (Gene 64061) was -0.12. The “DPEP3 log2FC” value (Gene 64180) was 0.19, the “RFWD2 log2FC” value (Gene 64326) was -0.06 and the “CENPH log2FC” value (Gene 64946) was 0.38. For the same molecule, the “MRPL41 log2FC” value (Gene 64975) was -0.47, the “INTS3 log2FC” value (Gene 65123) was -0.18 and the “PHACTR4 log2FC” value (Gene 65979) was 0.43. The “BOLL log2FC” value (Gene 66037) was -0.012, the “MIS12 log2FC” value (Gene 79003) was -0.76 and the “CENPM log2FC” value (Gene 79019) was 0.04. For the same molecule, the “NUP37 log2FC” value (Gene 79023) was 0.16, the “ZNF655 log2FC” value (Gene 79027) was 0.68 and the “CENPO log2FC” value (Gene 79172) was -0.71. The “E2F8 log2FC” value (Gene 79733) was 0.23, the “FBXO31 log2FC” value (Gene 79791) was -0.10 and the “CSPP1 log2FC” value (Gene 79848) was 0.57. For the same molecule, the “NEK11 log2FC” value (Gene 79858) was 0.47, the “MAP9 log2FC” value (Gene 79884) was 1.08 and the “NUP85 log2FC” value (Gene 79902) was 0.18. For the same molecule, the “CEP76 log2FC” value (Gene 79959) was 0.32, the “CENPT log2FC” value (Gene 80152) was 0.00794 and the “DBF4B log2FC” value (Gene 80174) was -0.40. The “CEP290 log2FC” value (Gene 80184) was 0.83, the “CEP63 log2FC” value (Gene 80254) was 0.71 and the “CDK5RAP3 log2FC” value (Gene 80279) was 0.0271. For the same molecule, the “CEP70 log2FC” value (Gene 80321) was 0.58, the “TUBB1 log2FC” value (Gene 81027) was -0.33 and the “NDEL1 log2FC” value (Gene 81565) was -0.13. The “FAM83D log2FC” value (Gene 81610) was -0.15, the “CAB39L log2FC” value (Gene 81617) was 0.08 and the “CCNL2 log2FC” value (Gene 81669) was -0.13. For the same molecule, the “CABLES2 log2FC” value (Gene 81928) was -0.71, the “KIF18A log2FC” value (Gene 81930) was 1.18 and the “SESN2 log2FC” value (Gene 83667) was -0.54. The “SETDB2 log2FC” value (Gene 83852) was 1.23, the “GSG2 log2FC” value (Gene 83903) was -0.50 and the “RASSF4 log2FC” value (Gene 83937) was 0.14. For the same molecule, the “MND1 log2FC” value (Gene 84057) was 0.59, the “HORMAD1 log2FC” value (Gene 84072) was 0.40 and the “USP44 log2FC” value (Gene 84101) was 0.0155. For the same molecule, the “CEP78 log2FC” value (Gene 84131) was 0.36, the “GINS4 log2FC” value (Gene 84296) was -0.47 and the “RAB11FIP4 log2FC” value (Gene 84440) was 0.56. The “LZTS2 log2FC” value (Gene 84445) was 1.13, the “BRSK1 log2FC” value (Gene 84446) was 0.0146 and the “SPIRE2 log2FC” value (Gene 84501) was 0.56. The “PARD6B log2FC” value (Gene 84612) was 0.88, the “PPP1R9B log2FC” value (Gene 84687) was -0.13 and the “SPATA22 log2FC” value (Gene 84690) was 0.0637. The “BEX2 log2FC” value (Gene 84707) was 0.83, the “PSRC1 log2FC” value (Gene 84722) was 0.36 and the “KLHL22 log2FC” value (Gene 84861) was 0.21. The “TBRG1 log2FC” value (Gene 84897) was 0.08, the “MASTL log2FC” value (Gene 84930) was 0.43 and the “LSM10 log2FC” value (Gene 84967) was -1.02. The “CCNB3 log2FC” value (Gene 85417) was 0.31, the “LRRCC1 log2FC” value (Gene 85444) was 0.61 and the “DIXDC1 log2FC” value (Gene 85458) was 0.018. The “PNPT1 log2FC” value (Gene 87178) was -0.10, the “LMLN log2FC” value (Gene 89782) was 0.82 and the “KLHL13 log2FC” value (Gene 90293) was 0.07. For the same molecule, the “GADD45GIP1 log2FC” value (Gene 90480) was -0.25, the “SLFN11 log2FC” value (Gene 91607) was -0.61 and the “CENPL log2FC” value (Gene 91687) was -0.11. For the same molecule, the “CABLES1 log2FC” value (Gene 91768) was 1.68, the “SYCE1 log2FC” value (Gene 93426) was -0.08 and the “ACTR8 log2FC” value (Gene 93973) was 0.12. For the same molecule, the “TP53INP1 log2FC” value (Gene 94241) was 0.89, the “CDCA5 log2FC” value (Gene 113130) was 0.0109 and the “TUBGCP5 log2FC” value (Gene 114791) was 0.12.
